Experimental data reported in ChEMBL document CHEMBL1157384, “Apratoxin D, a potent cytotoxic cyclodepsipeptide from papua new guinea collections of the marine cyanobacteria Lyngbya majuscula and Lyngbya sordida” (J Nat Prod, 2008).

Test system: NCI-H460
Assay: Cytotoxicity against human H460 cells after 48 hrs by MTT assay
Assay type: functional, cell-based
Conditions: NCI-H460, 48 h

Structure (SMILES): CC[C@H](C)[C@H]1C(=O)N2CCC[C@H]2C(=O)O[C@H]([C@@H](C)CC(C)(C)C)C[C@@H](C)C[C@H](O)[C@H](C)C2=N[C@@H](/C=C(\C)C(=O)N[C@@H](Cc3ccc(OC)cc3)C(=O)N(C)[C@@H](C)C(=O)N1C)CS2 [APRATOXIN D]
- IC50: 2.6 nM
